Data from ChEMBL document CHEMBL5291721, “A preclinical secondary pharmacology resource illuminates target-adverse drug reaction associations of marketed drugs” (Nat Commun, 2023).

Key:
Adenosine receptor A3 = molecular target: T1, Adenosine receptor A3 (Homo sapiens, UniProt P0DMS8)
T1 sequence (P0DMS8 whole entry): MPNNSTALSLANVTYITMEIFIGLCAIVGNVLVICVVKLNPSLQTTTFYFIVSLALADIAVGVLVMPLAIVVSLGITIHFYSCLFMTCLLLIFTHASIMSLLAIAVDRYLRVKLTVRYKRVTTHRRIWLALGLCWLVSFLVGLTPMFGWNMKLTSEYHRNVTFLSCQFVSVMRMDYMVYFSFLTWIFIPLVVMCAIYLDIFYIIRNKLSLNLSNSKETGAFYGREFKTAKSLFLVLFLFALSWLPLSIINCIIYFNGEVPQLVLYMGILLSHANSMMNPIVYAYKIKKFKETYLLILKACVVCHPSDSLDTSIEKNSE

[1] = molecular target: T2, Alpha-1A adrenergic receptor (Homo sapiens, UniProt P35348); type: functional, cell-based
T2 sequence (P35348 whole entry): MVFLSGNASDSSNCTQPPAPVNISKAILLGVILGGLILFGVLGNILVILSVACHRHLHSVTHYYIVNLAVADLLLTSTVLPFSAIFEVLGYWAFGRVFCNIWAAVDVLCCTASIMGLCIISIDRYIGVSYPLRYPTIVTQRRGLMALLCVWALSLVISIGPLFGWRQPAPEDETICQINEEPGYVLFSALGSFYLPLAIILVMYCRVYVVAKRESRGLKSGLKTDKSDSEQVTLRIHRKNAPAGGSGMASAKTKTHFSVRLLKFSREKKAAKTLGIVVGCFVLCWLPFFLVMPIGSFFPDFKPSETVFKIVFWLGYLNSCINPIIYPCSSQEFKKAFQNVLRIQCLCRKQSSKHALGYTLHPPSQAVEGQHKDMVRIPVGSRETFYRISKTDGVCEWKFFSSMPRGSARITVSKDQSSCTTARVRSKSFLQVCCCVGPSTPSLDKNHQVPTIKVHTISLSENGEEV

[2] = molecular target: T3, Muscarinic acetylcholine receptor M2 (Homo sapiens, UniProt P08172)
T3 sequence (P08172 whole entry): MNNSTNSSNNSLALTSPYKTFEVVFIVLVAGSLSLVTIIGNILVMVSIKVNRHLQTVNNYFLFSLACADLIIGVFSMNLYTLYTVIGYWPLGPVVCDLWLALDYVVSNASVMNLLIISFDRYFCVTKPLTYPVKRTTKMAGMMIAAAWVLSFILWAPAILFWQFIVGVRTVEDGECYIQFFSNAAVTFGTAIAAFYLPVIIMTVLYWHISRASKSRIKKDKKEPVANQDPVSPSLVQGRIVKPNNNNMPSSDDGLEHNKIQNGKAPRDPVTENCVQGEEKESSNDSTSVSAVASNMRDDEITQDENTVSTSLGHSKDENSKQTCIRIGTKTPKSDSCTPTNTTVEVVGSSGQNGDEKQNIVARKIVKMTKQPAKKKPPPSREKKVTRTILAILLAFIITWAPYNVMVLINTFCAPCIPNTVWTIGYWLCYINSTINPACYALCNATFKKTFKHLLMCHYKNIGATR

Prothrombin = Prothrombin (Homo sapiens, UniProt P00734); type: functional
[3] = molecular target: 5-hydroxytryptamine receptor 2B (Homo sapiens, UniProt P41595); type: functional, cell-based
Chain of 5-hydroxytryptamine receptor 2B (P41595 whole entry): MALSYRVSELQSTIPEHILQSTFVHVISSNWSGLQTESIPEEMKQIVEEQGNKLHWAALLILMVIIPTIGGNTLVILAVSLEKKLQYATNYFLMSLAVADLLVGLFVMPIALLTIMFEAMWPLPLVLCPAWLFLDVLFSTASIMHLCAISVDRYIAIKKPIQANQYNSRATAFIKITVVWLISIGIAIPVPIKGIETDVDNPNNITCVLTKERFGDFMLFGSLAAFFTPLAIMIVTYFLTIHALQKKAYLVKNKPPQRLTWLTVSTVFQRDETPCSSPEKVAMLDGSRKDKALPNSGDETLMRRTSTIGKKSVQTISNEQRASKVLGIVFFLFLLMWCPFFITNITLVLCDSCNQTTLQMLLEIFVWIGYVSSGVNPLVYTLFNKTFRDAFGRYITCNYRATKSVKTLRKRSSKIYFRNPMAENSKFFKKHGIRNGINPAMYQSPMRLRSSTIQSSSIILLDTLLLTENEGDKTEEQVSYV

[4] = molecular target: Voltage-gated inwardly rectifying potassium channel KCNH2 (Homo sapiens, UniProt Q12809); type: functional; settings: read-out: AC50
Chain of Voltage-gated inwardly rectifying potassium channel KCNH2 (Q12809 whole entry): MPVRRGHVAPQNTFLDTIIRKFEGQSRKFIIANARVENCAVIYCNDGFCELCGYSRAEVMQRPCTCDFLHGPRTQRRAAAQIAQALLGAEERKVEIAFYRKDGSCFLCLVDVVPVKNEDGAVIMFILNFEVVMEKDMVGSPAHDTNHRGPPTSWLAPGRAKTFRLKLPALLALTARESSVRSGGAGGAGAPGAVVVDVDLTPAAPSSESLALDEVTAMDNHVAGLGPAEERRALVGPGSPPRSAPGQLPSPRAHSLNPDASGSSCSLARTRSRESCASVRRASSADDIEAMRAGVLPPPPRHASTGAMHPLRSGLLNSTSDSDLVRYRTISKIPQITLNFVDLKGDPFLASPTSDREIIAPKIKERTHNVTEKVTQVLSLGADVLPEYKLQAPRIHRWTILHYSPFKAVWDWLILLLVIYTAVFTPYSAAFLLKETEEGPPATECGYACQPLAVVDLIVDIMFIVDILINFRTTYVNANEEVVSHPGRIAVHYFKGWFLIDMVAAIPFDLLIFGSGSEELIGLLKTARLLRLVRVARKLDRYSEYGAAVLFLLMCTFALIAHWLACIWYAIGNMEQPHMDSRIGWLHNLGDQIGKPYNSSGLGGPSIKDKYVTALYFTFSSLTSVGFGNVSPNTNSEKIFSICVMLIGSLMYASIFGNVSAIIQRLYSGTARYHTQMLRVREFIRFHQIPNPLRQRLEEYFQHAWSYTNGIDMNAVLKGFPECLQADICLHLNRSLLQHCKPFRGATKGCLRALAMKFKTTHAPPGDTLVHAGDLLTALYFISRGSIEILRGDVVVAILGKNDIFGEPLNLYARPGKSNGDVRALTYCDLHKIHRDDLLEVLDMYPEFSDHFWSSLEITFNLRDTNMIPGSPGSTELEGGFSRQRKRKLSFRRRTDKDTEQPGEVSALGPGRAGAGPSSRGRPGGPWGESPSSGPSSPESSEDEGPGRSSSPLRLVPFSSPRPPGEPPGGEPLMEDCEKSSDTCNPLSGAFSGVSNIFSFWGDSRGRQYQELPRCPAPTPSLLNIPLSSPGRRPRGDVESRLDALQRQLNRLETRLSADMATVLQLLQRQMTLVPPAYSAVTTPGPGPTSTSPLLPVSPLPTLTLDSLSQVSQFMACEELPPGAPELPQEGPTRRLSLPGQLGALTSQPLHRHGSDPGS

[5] = molecular target: Prostaglandin G/H synthase 1 (Homo sapiens, UniProt P23219); type: functional
Chain of Prostaglandin G/H synthase 1 (P23219 whole entry): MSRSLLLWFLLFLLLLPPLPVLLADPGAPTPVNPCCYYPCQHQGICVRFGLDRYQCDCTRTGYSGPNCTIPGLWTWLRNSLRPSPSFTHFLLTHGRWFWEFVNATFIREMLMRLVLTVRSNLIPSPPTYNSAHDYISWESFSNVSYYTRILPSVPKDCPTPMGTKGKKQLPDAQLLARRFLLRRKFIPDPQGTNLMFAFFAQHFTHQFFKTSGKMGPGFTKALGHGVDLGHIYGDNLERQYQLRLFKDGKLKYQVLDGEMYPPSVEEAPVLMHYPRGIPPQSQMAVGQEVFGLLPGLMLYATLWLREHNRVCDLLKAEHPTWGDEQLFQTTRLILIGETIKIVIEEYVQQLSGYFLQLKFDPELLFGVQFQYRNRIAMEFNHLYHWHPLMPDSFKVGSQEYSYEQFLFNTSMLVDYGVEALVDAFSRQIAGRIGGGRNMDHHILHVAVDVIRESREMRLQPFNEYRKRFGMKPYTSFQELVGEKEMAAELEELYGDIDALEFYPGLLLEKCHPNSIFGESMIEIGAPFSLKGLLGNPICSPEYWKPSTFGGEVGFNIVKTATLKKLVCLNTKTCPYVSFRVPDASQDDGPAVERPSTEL

[6] = molecular target: Sodium-dependent dopamine transporter (Homo sapiens, UniProt Q01959)
Chain of Sodium-dependent dopamine transporter (Q01959 whole entry): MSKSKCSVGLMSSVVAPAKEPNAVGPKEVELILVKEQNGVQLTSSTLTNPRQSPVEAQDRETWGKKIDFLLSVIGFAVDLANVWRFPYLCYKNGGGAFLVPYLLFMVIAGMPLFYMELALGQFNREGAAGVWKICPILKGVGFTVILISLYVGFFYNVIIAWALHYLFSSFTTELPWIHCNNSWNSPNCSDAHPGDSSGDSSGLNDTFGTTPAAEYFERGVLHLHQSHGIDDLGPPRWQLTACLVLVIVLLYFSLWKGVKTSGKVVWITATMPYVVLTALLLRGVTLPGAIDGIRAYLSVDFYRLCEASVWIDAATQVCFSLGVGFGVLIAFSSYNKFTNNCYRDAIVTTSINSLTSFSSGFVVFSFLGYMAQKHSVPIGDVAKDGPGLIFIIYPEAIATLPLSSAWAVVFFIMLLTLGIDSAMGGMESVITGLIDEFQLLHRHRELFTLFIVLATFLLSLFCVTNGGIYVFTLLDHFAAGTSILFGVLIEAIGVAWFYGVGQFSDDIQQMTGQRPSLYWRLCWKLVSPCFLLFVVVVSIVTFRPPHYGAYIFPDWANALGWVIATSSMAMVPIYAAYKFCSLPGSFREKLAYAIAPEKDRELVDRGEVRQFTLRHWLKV

Thromboxane A2 receptor = molecular target: T4, Thromboxane A2 receptor (Homo sapiens, UniProt P21731); type: functional, cell-based
T4 sequence (P21731 whole entry): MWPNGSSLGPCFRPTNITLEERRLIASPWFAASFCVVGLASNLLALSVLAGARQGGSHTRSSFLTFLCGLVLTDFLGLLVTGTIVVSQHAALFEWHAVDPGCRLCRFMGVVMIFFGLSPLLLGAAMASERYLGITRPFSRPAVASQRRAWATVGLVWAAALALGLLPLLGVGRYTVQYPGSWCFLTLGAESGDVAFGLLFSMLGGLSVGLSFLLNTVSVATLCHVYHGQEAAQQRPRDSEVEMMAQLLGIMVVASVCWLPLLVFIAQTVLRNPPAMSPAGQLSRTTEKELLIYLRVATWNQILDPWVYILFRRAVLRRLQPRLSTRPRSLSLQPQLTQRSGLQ

Estrogen receptor = molecular target: T5, Estrogen receptor (Homo sapiens, UniProt P03372)
T5 sequence (P03372 whole entry): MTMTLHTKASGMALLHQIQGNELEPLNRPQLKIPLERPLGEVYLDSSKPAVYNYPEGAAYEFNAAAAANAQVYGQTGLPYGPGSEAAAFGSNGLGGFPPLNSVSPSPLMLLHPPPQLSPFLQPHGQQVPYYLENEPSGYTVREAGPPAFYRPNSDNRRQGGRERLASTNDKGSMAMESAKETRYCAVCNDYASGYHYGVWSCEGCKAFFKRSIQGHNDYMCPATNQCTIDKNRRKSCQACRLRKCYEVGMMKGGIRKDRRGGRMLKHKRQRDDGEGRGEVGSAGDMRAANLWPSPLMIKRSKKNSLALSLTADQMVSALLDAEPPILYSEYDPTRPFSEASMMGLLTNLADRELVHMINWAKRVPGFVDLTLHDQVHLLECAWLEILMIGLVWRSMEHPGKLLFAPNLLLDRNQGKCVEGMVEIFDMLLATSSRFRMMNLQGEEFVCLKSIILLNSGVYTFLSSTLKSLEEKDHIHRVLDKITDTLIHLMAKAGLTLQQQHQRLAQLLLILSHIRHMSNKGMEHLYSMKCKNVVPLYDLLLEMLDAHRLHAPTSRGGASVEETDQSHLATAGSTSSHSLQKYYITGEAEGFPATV
Further: assay procedure not described here.

Row | SMILES | AC50 (Adenosine receptor A3) | AC50 [1] | AC50 [2] | AC50 (Prothrombin) | AC50 [3] | AC50 [4] | AC50 [5] | AC50 [6] | AC50 (Thromboxane A2 receptor) | AC50 (Estrogen receptor)
1 | O=C(O)c1cccc(-c2noc(-c3ccccc3F)n2)c1 | > 30 µM | > 30 µM | > 30 µM | > 30 µM | > 30 µM | > 30 µM | > 30 µM | > 30 µM | > 30 µM | –
2 | Cc1c(O)cccc1C(=O)N[C@@H](CSc1ccccc1)[C@H](O)CN1C[C@H]2CCCC[C@H]2C[C@H]1C(=O)NC(C)(C)C | 2.84 µM | > 30 µM | > 30 µM | > 30 µM | > 30 µM | > 30 µM | > 30 µM | 23.1 µM | 13.2 µM | –
3 | CCCC1C(=O)N2C(N(C)C)=Nc3ccc(C)cc3N2C1=O (stereo not drawn) [APAZONE] | 3.84 µM | > 30 µM | > 30 µM | > 30 µM | > 30 µM | > 30 µM | 6.16 µM | > 30 µM | > 30 µM | –
4 | CCCCN(CCCC)CCCOC(=O)c1ccc(N)cc1 [BUTACAINE] | > 30 µM | > 30 µM | 16.3 µM | > 30 µM | > 30 µM | 5.4 µM | > 30 µM | 2 µM | > 30 µM | –
5 | C[C@@H]1C[C@H]2[C@@H]3CCC4=CC(=O)C=C[C@]4(C)[C@@]3(F)[C@@H](O)C[C@]2(C)[C@H]1C(=O)CO [DESOXIMETASONE] | > 30 µM | > 30 µM | > 30 µM | > 30 µM | > 30 µM | > 30 µM | > 30 µM | > 30 µM | > 30 µM | –
6 | CC(C)Cc1ccc(C(C)C(=O)NO)cc1 (stereo not drawn) [IBUPROXAM] | > 30 µM | > 30 µM | > 30 µM | > 30 µM | > 30 µM | > 30 µM | – | > 30 µM | > 30 µM | > 30 µM
7 | CS(=O)(=O)Nc1cc2occ(NC=O)c(=O)c2cc1Oc1ccccc1 [IGURATIMOD] | 1.44 µM | > 30 µM | > 30 µM | > 30 µM | > 30 µM | > 30 µM | 4.33 µM | > 30 µM | > 30 µM | –
8 | CCN(CC)CCNc1ccc(C)c2sc3ccccc3c(=O)c12 [LUCANTHONE] | 12.4 µM | – | 2.36 µM | > 30 µM | > 30 µM | 1.3 µM | > 30 µM | 3.42 µM | 13.4 µM | > 30 µM
9 | CCC1(c2cccc(O)c2)CCCCN(C)C1 (stereo not drawn) [MEPTAZINOL] | > 30 µM | > 30 µM | 20.9 µM | > 30 µM | > 30 µM | > 30 µM | > 3 µM | > 30 µM | > 30 µM | –
10 | CC(=O)OC(C)C[N+](C)(C)C (stereo not drawn) [METHACHOLINE] | > 30 µM | > 30 µM | 2.22 µM | > 30 µM | > 30 µM | > 30 µM | > 30 µM | > 30 µM | – | > 30 µM
11 | C1N2CN3CN1CN(C2)C3 [METHENAMINE] | > 30 µM | > 30 µM | > 30 µM | > 30 µM | > 30 µM | > 30 µM | > 30 µM | > 30 µM | > 30 µM | –
12 | CO[C@@]12[C@H](COC(N)=O)C3=C(C(=O)C(C)=C(N)C3=O)N1C[C@@H]1N[C@@H]12 [MITOMYCIN] | > 30 µM | > 30 µM | > 30 µM | > 30 µM | > 30 µM | – | > 30 µM | > 30 µM | > 30 µM | –
13 | COc1ccc2c(c1)OC(C)(C)C(c1ccccc1)C2c1ccc(OCCN2CCCC2)cc1 (stereo not drawn) [ORMELOXIFENE] | 3.66 µM | – | 9.13 µM | > 30 µM | > 30 µM | 2.7 µM | 4.3 µM | 3 µM | 12.2 µM | 1.29 µM
14 | Oc1cccc2cccnc12 [OXYQUINOLINE] | > 30 µM | 20.8 µM | > 30 µM | > 30 µM | > 30 µM | – | > 30 µM | > 30 µM | > 30 µM | –
15 | CC[C@@H]1/C=C(\C)C[C@H](C)C[C@H](OC)[C@H]2O[C@@](O)(C(=O)C(=O)N3CCCC[C@H]3C(=O)O[C@H](/C(C)=C/[C@@H]3CC[C@H](Cl)[C@H](OC)C3)[C@H](C)[C@@H](O)CC1=O)[C@H](C)C[C@@H]2OC [PIMECROLIMUS] | 5.19 µM | > 30 µM | > 30 µM | > 30 µM | > 30 µM | > 30 µM | > 30 µM | > 30 µM | > 30 µM | –
16 | CC(C(=O)O)c1ccc2c(c1)Cc1cccnc1O2 (stereo not drawn) [PRANOPROFEN] | > 30 µM | > 30 µM | > 30 µM | > 30 µM | > 30 µM | > 30 µM | 0.702 µM | > 30 µM | > 30 µM | –
17 | CCO[C@@H](Cc1ccc(OCCn2c(C)ccc2-c2ccc(SC)cc2)cc1)C(=O)O [SAROGLITAZAR] | 14.9 µM | – | > 30 µM | > 30 µM | > 30 µM | > 30 µM | > 30 µM | > 30 µM | – | > 30 µM
18 | O=C1CCC(N2C(=O)c3ccccc3C2=O)C(=O)N1 (stereo not drawn) [THALIDOMIDE] | > 30 µM | > 30 µM | 14.8 µM | > 30 µM | > 30 µM | > 30 µM | > 30 µM | > 30 µM | > 30 µM | –
19 | C[C@@H]1O[C@@H](OC[C@H]2O[C@@H](Oc3c(-c4ccc(OCCO)c(OCCO)c4)oc4cc(OCCO)cc(O)c4c3=O)[C@H](O)[C@@H](O)[C@@H]2O)[C@H](O)[C@H](O)[C@H]1O [TROXERUTIN] | 7.52 µM | > 30 µM | > 30 µM | > 30 µM | > 30 µM | > 30 µM | 22.4 µM | > 30 µM | > 30 µM | –
